Here are results for 6 compounds from paper PMC8791944, “GLUT3 inhibitor discovery through in silico ligand screening and in vivo validation in eukaryotic expression systems” (Scientific Reports, 2022).

In data set [1] the test system is Caco-2 (colon cancer) cells. Description: MTT cancer cell viability assay, Caco-2. Type of data set: cell-based. The settings on record: Homo sapiens. As for the experimental part:
(§1) A possible therapeutic application of GLUT3 inhibitors is in oncology, especially for cancers in which GLUT3 is a poor prognosis marker. We tested the effect of GLUT3 inhibitors on the cell viability of several different cancer lines: myeloid leukemia (HL60 and U937), lung cancer (A549), colorectal adenocarcinoma (Caco-2), breast cancer (MCF7), hepatocellular carcinoma (HepG2), and choriocarcinoma (BeWo) cells. GLUT3 inhibitors, at five different concentrations, ranging from 2 to 100 µM, were incubated with cancer cells for 48 h. Then, cell viability was assessed with the MTT assay. […] G3iC and G3iD also affected the leukemia cell lines but at double the concentrations of G3iB and G3iE. […] G3iB had some cytotoxic activity (CC50 < 50 µM) against the highest number of cancer cell lines (HL60, U937, A549, HepG2, and MCF7).
(§2) Cancer cell viability in the presence of GLUT3 inhibitors was assayed using the MTT Cell Viability Kit (Biotium Inc, Freemont, CA) according to manufacturer’s instructions. Cancer cells were grown in the corresponding medium, at 37 °C and 5% CO2 in a humidified incubator. The media (Gibco) for leukemia cells (HL60 and U937), A549, MCF7, BeWo, and HepG2 cells were RPMI 1640, Ham’s F-12K, DMEM:F-12, Ham’s F-12K, and EMEM, respectively, all supplemented with 10% (v/v) fetal bovine serum (HyClone). Caco-2 cells were grown in EMEM supplemented with 20% (v/v) fetal bovine serum. Cells were detached from the culture flasks with Accutase (Innovative Cell Technologies, Inc., San Diego, CA) according to manufacturer’s instructions. Cells were seeded in 96-well plates, at a density of ~ 30,000 cells/well (in 100 µl fresh media) and incubated with varying concentrations of GLUT3 inhibitors for 48 h, at 37 °C and 5% CO2 in a humidified incubator. The inhibitors were dissolved in DMSO, at 100× the final concentration, so that 1 µl of the stock inhibitor concentration was added per well, making the final DMSO concentration 1% (v/v). Therefore, controls for 100% cell viability were cells with 1% (v/v) DMSO without the inhibitors. Controls for 0% cell viability were cells treated with 0.3% (v/v) Tween 20. For MTT assay, 10 µl of MTT reagent was added in each well followed by 3–4 h incubation at 37 °C and 5% CO2 in a humidified incubator. After thoroughly mixing in 200 µl DMSO in each well, the plates were put into a plate reader (BioTek Synergy H1), and the absorbances at 570 nm and 630 nm were measured with Gen5 program (BioTek Inc.). The experimental values represent Abs570 nm-Abs630 nm with each inhibitor condition and control being the average of three wells.
(§3) Supplementary Figure S8. Effect of GLUT3 inhibitors on the viability of various cancer cell lines. Cell viability was determined by MTT assay in A549 (lung cancer), BeWo (choriocarcinoma), Caco-2 (colon cancer), HepG2 (liver cancer), HL-60 (leukemia), MCF7 (breast cancer), and U937 (histiocytic lymphoma) cell lines. GLUT3 inhibitors at concentrations of 2, 5, 10, 20, 50, and 100 µM were incubated with cells in 96-well plates for 48 hours before the addition of the MTT reagent.

In data set [2] the test system is HepG2 (liver cancer) cells. Description: MTT cancer cell viability assay, HepG2. Type of data set: cell-based. To be noted: HepG2, 48 h. As for the experimental part:
as §1, §2, §3

Where [3] appears, read: Caco-2, Caco2, 48 h, MTT, read-out: CC50.

Read-outs that look alike come from different tables or passages of the source.

A word on the CC50: it is the concentration that lowers cell viability or growth by half. Consider `Cc1cccnc1OC1CCN(c2cc(N3CCCC3CO)ncn2)CC1` (stereo not shown) [G3iC], for which the CC50 in data set [1] (setting [3]) and in data set [2] (Homo sapiens) was more than 100 µM each time.
For `O=C(Nc1cccc(Cl)c1)c1cccc(NC(=O)c2cccc([N+](=O)[O-])c2)c1` [G3iE, N-{3-[(3-chloroanilino)carbonyl]phenyl}-3-nitrobenzamide], the CC50 is more than 50 µM in data set [1] (setting [3]) and more than 100 µM in data set [2] (Homo sapiens).
Consider `Cc1cc(NC(=O)CCC2Cc3ccccc3NC2=O)nc(-c2ccccc2)n1` (stereo not shown) [G3iD], for which the CC50 in data set [1] (setting [3]) and in data set [2] (Homo sapiens) was more than 100 µM throughout.
With `COc1ccccc1-n1c(/C=C/c2ccc(O)cc2)nc2ccc(Br)cc2c1=O` [G3iB, 6-bromo-2-[(E)-2-(4-hydroxyphenyl)ethenyl]-3-(2-methoxyphenyl)quinazolin-4(3H)-one], the CC50 in data set [1] (Caco-2, 48 h) is more than 50 µM; in data set [2], 39.3 ± 4 µM; in data set [2] (Homo sapiens), less than 50 µM.
In the case of `CC(=O)Nc1ccc(S(=O)(=O)Nc2ccc(Nc3cc(N(C)C)nc(C)n3)cc2)cc1` [G3iA, N-(4-{[(4-{[6-(dimethylamino)-2-methylpyrimidin-4-yl]amino}phenyl)amino]sulfonyl}phenyl)acetamide], the CC50 in data set [1] (setting [3]) and in data set [2] (Homo sapiens) was more than 100 µM throughout.
Take `Cc1ccccc1CN(Cc1nnc(C(C)(C)C)o1)c1ccc2nc(O)[nH]c2c1` [G3iF]: the CC50 in data set [1] (setting [3]) and in data set [2] (Homo sapiens) was more than 100 µM throughout.
